Measurements taken from ChEMBL document CHEMBL1151136, “Searching for Bioactive Compounds: Various Strategies” (J Nat Prod, 1990).
Values after ≈ are worked out from the molar mass of the structure shown.

What was measured:
[1] = Cytotoxicity against ovarian cancer cells; assay type: functional; conditions: Cancer cell lines; read-out: ID50 (the source's name)
[2] = tested on: Staphylococcus aureus; assay: Antimicrobial activity against Staphylococcus aureus; assay type: functional
[3] = tested on: Bacillus subtilis; assay: Antimicrobial activity against Bacillus subtilis; assay type: functional
[4] = Cytotoxicity against CHL cells; assay type: cell-based, Cricetulus griseus; conditions: chinese hamster, read-out: LD50 (the source's name)
[5] = tested on: Penicillium citrinum; assay: Antimicrobial activity against Penicillium citrinum; assay type: functional

Row | Structure (SMILES) | MIC [2] [µg/mL] | MIC [3] [µg/mL] | further results
1 | C=C/C(C)=C/C[C@]1(C)[C@H]2C[C@@H](O)C=C3[C@H](OC(C)=O)O[C@@H](OC(C)=O)[C@@]32[C@H](OC(=O)/C=C/c2ccccc2)C[C@@H]1C | – | – | IC50 [1]: 35 µg/mL (≈ 62 µM)
2 | C=C(CC(=O)O)C(=O)C[C@@]1(C)[C@H](C)CC[C@@]2(C)C(C)=CCC[C@H]12 | 20 (≈ 62.8 µM) | 25 (≈ 78.5 µM) | –
3 | C=C/C(C)=C/C[C@@]1(C)[C@@H](C)[C@H](OC(=O)CCCCCCCCC)[C@@H](OC(C)=O)[C@]23C(=C[C@H](O)C[C@@]21C)[C@@H](OC(C)=O)O[C@@H]3OC(C)=O | – | – | CC50 [4]: 770 nM
4 | CC(=O)O[C@@H]1[C@H](OC(C)=O)[C@@H](Oc2c(-c3ccc(O)cc3)oc3cc(O)cc(O)c3c2=O)O[C@H](C)[C@H]1OC(=O)/C=C/c1ccc(O)cc1 | – | – | MIC [5]: < 30 µg/mL
5 | CN[C@@H]1[C@H](O[C@H]2[C@H](O[C@H]3[C@H](O)[C@@H](O)[C@H](N=C(N)N)[C@@H](O)[C@@H]3N=C(N)N)O[C@@H](C)[C@]2(O)C=O)O[C@@H](CO)[C@H](O)[C@H]1O.CN[C@@H]1[C@H](O[C@H]2[C@H](O[C@H]3[C@H](O)[C@@H](O)[C@H](N=C(N)N)[C@@H](O)[C@@H]3N=C(N)N)O[C@@H](C)[C@]2(O)C=O)O[C@@H](CO)[C@H](O)[C@H]1O.O=S(=O)(O)O.O=S(=O)(O)O.O=S(=O)(O)O [STREPTOMYCIN SULFATE] | 6.3 | 12.5 | –
